According to patent US7741520B2, “Sulfonanilide analogs as selective aromatase modulators (SAMs)” (The Ohio State University Research Foundation, priority 2006, dated 2010):

Tests used:
[1] = test system: aromatase activity in SK-BR-3 breast cancer cells; test: Aromatase tritiated water-release assay in SK-BR-3 cell lines (first compound set); format: cell-based, human; conditions: SK-BR-3 cells
[2] = test system: aromatase activity in SK-BR-3 breast cancer cells; test: as above; format: cell-based, human; conditions: SK-BR-3 cells; for IC50: 24 h treatment, five concentrations, each in triplicate, read-out: IC50 (μM), suppression of aromatase activity in SK-BR-3 breast cancer cells
Experimental: Aromatase Tritiated Water-Release Assay in SK-BR-3 Cell Lines. SK-BR-3 cells were obtained from ATCC (Rockville, Md.). Cell cultures were maintained in phenol red-free custom media (MEM, Earle's salts, 1.5× amino acids, 2× nonessential amino acids, L-glutamine, 1.5× vitamins, Gibco BRL) supplemented with 10% fetal bovine serum (FBS), 2 mM L-glutamine, and 20 mg/L gentamycin. Measurement of aromatase enzyme activity was based on the tritium water release assay. 24 Cells in 100 mm Petri dish were treated with 0.1% DMSO (control), and inhibitors at the indicated concentrations. After 24 h, the media was changed and the cells were incubated with 100 nM [1â-3H]-androst-4-ene-3,17-dione ([…]) for 3 h. Subsequently, the reaction mixture was removed, and proteins were precipitated using 10% trichloroacetic acid at 42° C. for 20 min. After a brief centrifugation, the media was extracted three times with an equal amount of chloroform to extract unused substrate and further dextran-treated charcoal. After centrifugation, a 250-μL aliquot containing the product was counted in 5 mL of liquid scintillation mixture. Results were corrected for blanks and for the cell contents of culture flasks, and results were expressed as picomoles of 3H2O formed per hour incubation time per million live cells (pmol/h/10^6 cells). To determine the amount of cells in each flask, the cells were trypsinized and analyzed using the diphenylamine DNA assay adapted to a 96-well plate. (Natarajan N.; Shambaugh, G. E., 3rd; Elseth K. M.; Haines G. K.; Radosevich J. A. Adaptation of the diphenylamine (DPA) assay to a 96-well plate tissue culture format and comparison with the MTT assay. Biotechniques 1994, 17, 166-171; incorporated herein by reference). IC50 sigmoidal dose-response data were analyzed with Microsoft Excel and the Graphpad Prism (Version 3.0) program.

[3] = test system: CYP19 mRNA expression in SK-BR-3 cells; test: CYP19 mRNA expression by real-time RT-PCR in SK-BR-3 cells; format: cell-based, human; conditions: 25 μM, 24 h (FIG. 5)
Experimental: (§1) RNA Extraction. Total RNA was isolated using the TRIzol reagent according to the manufacturer's protocol. Total RNA pellets were dissolved in DNase- and RNase-free water and quantitated using a spectrophotometer. The quality of RNA samples was determined by electrophoresis through agarose gels and staining with ethidium bromide; the 18S and 28S rRNA bands were visualized under ultraviolet light.
(§2) cDNA Synthesis. Isolated total RNA (2 μg) was treated with DNase I Amplification grade, according to the recommended protocol to eliminate any DNA before reverse transcription. Treated total RNA was denatured at 65° C. for 5 min in the presence of 2.5 ng/μL random hexamers and 0.5 mM dNTP mix. The samples were snap-cooled on ice and centrifuged briefly. Complementary DNA (cDNA) was synthesized using Superscript II reverse transcriptase according to the recommended protocol. Briefly, the reactions were conducted in the presence of 1× First-Strand Buffer and 20 mM DTT at 42° C. for 50 min and consequently inactivated at 70° C. for 15 min. The cDNA generated was used as a template in realtime PCR reactions.
Real-Time PCR. Real-time PCR was performed using the Opticon 2 system from MJ Research (Waltham, Mass.). For the CYP19 total gene the PCR reaction mixture consisted of Taqman Universal PCR Master Mix (Applied Biosystems), 600 nM of CYP19 primer (sense: 5′-TGTCTCTTTGTTCTTCATGCTATTTCTC-3′ (SEQ ID NO: 1); antisense: 5′-TCACCAATAACAGTCTGGATTTCC-3′) (SEQ ID NO: 2); 250 nM Taqman probe (6FAM 5′-TGCAAAGCACCCTAATGTTGAAGAGGCAAT-3′TAMRA) (SEQ ID NO: 3) (Invitrogen), 18S rRNA (Applied Biosystems, Foster City, Calif.), and 2.0 μL of each RT sample in a final volume of 20 μL. The Taqman probe was designed to anneal to a specific sequence of the aromatase gene between the forward and the reverse primers. Cycling conditions were 50° C. for 2 mm and 95° C. for 10 mm, followed by 50 cycles at 95° C. for 15 s and 60° C. for 1 mm.
as §1, with “extraction.” for “Extraction.”, “DNase,” for “DNase- and”
as §2, with “synthesis.” for “Synthesis.”, “real-time” for “realtime”
Real-time PCR. Real-time PCR was performed using the Opticon™ 2 system from MJ Research (Waltham, Mass.). For the CYP19 total gene the PCR reaction mixture consisted of Taqman® Universal PCR Master Mix (Applied Biosystems), 600 nM of CYP19 primer (sense: 5′-TGTCTCTTTGTTCTTCATGCTATTTCTC-3′ (SEQ ID NO: 1); antisense: 5′-TCACCAATAACAGTCTGGATTTCC-3′) (SEQ ID NO: 2); 250 nM Taqman probe (6FAM 5′-TGCAAAGCACCCTAATGTTGAAGAGGCAAT-3′TAMRA) (SEQ ID NO: 3) (Invitrogen), and 2.0 μL of each cDNA sample in a final volume of 20 μL. […]

[4] = test system: PGE2 production in MDA-MB-231 cells; test: Enzyme immunoassay of PGE2 in MDA-MB-231 cells (COX-2 inhibitory activity); format: cell-based, human; conditions: 25 μM, 24 h (FIG. 4)
Experimental: Enzyme Immunoassay of PGE2 in MDA-MB-231 Cells. MDA-MB-231 cells were obtained from ATCC (Rockville, Md.). Cell cultures were maintained in phenol red-free custom media (MEM, Earle's salts, 1.5× amino acids, 2× nonessential amino acids, L-glutamine, 1.5× vitamins, Gibco BRL) supplemented with 10% fetal bovine serum (FBS), 2 mM L-glutamine and 20 mg/L gentamycin. To study PGE2 synthesis in cell culture media, experiments were performed in […] Petri dishes. An aliquot of MDA-MB-231 cells (15×10^4 cells) were added to each dish and then incubated overnight to allow the cells to adhere to the dish. After that, cells were serum starved in defined media for 24 h. This step was followed by replacement of media with fresh media containing either vehicle (DMSO) or the indicated concentration of agents. After 24 h incubation at 37° C. the media were collected and the amount of PGE2 was determined by ELISA (Cayman Chemical) according to the protocol provided by the manufacturer. PGE2 concentration was normalized to total protein. Total proteins were extracted from adhered cells by 30 min treatment with 0.5 M NaOH at room temperature and shaking. Protein concentrations in these extracts were determined using a protein assay method (Bio-Rad Laboratories, Inc., Hercules, Calif.).

SMILES	time-course of suppression of aromatase activity ([1]; 10 μM)	IC50 [2]	melting point	CYP19 gene expression relative to control [3]	PGE2 production (COX-2 inhibitory activity) [4]	time-course of suppression of aromatase activity ([1]; 2 μM)	increase of aromatase activity after removing the drug ([2]; letrozole 10 nM, after removal of drug)	time-course of suppression of aromatase activity ([1]; 10 nM)
C[C@@H]1C[C@@H]([C@H](O)CC2CC(=O)NC(=O)C2)C(=O)[C@@H](C)C1 [Cycloheximide]	showed similar results	–	–	–	–	–	–	–
CCC(CC)Oc1cc([N+](=O)[O-])ccc1NS(C)(=O)=O [Compound 13, N-(2-(1-Ethyl-propyloxy-4-nitrophenyl))methanesulfonamide]	–	0.3 µM	100 to 102 °C	significantly decreased CYP19 gene expression	significantly decrease in PGE2 production	–	–	–
CS(=O)(=O)Nc1ccc([N+](=O)[O-])cc1OC1CCCCC1 [NS-398, N-(2-Cyclohexyloxy-4-nitrophenyl)methanesulfonamide, reference compound]	–	0.68 µM	–	significantly decreased CYP19 gene expression	significantly decrease in PGE2 production	prolonged reversible suppression of aromatase	–	–
CCC(CC)Oc1cc([N+](=O)[O-])ccc1N(C)S(C)(=O)=O [Compound 22, N-Methyl-N-(2-(1-ethyl-propyloxy-4-nitrophenyl))methanesulfonamide]	–	0.23 µM	89 to 90 °C	significantly decreased CYP19 gene expression	did not show any inhibitory activity	–	–	–
CN(c1ccc([N+](=O)[O-])cc1OC1CCCCC1)S(C)(=O)=O [Compound 17, N-Methyl-N-(2-cyclohexyloxy-4-nitrophenyl)methanesulfonamide]	–	0.47 µM	129 to 132 °C	significantly decreased CYP19 gene expression	did not show any inhibitory activity	prolonged reversible suppression of aromatase	–	–
N#Cc1ccc(C(c2ccc(C#N)cc2)n2cncn2)cc1 [letrozole, reference compound]	–	–	–	–	–	–	150%	acute inhibition
